Tested on: individuals diagnosed with schizophrenia
Test: Change in PANSS-T by SNP genotype, patients on iloperidone 24 mg/day b.i.d. for 28 days (MMRM, LOCF)
Format: in vivo, human
Text: Earlier studies investigated an association between a polymorphism in the CNTF gene and iloperidone efficacy as well as associations between CYP2D6 and KCNQ1 genotypes and changes in QT interval following the administration of iloperidone. The present study involved the genotyping of DNA samples collected from 426 individuals diagnosed with schizophrenia in an attempt to identify additional SNPs associated with iloperidone efficacy. Each sample was genotyped at more than 500,000 SNP loci using the GeneChip® Human Mapping 500K Array Set (Affymetrix, Santa Clara, Calif.) and using assays developed in-house. Approximately half of the participants in the study were administered 24 mg/day of iloperidone, b.i.d., for 28 days. About 25% of the patients were administered ziprasidone. The remaining participants were administered a placebo. Three analyses of the PANSS-T were conducted. 1) A two-step approach where samples were randomly split into 2 groups of iloperidone-treated patients used to discover SNPs associated with changed in PANSS-T (Discovery phase) and a second group to confirm the 100 most significant SNPs (Confirmatory phase). 2) A one-step approach using the Last Observation Carried Forward (LOCF) PANSS-T data of all iloperidone-treated patients. For each SNP, the most parsimonious genetic model (e.g., homozygous for one allele v. all other genotypes [i.e., AA v. AB and BB], heterozygous v. homozygous [i.e., AB v. AA and BB]) was established with respect to iloperidone efficacy using a one-way analysis of variance (ANOVA). 3) A Mixed-effects Model Repeated Measures (MMRM) analysis was subsequently conducted using the best genetic model of each SNP in the MMRM model. MMRM analyses were also conducted with the PANSS subscales PANSS-P, PANSS-N, and PANSS-GP. The SNPs with a statistically significant association in all 3 analyses of PANSS-T, as well as the best of each analysis were considered significant findings and are listed below in Table 1. Results for each of these SNPs with the PANSS-T scales and with the three subscales PANSS-P, PANSS-N, and PANSS-GP are shown in Tables 2, 3, 4, and 5, respectively. As used herein, “greater iloperidone efficacy” means an improvement in PANSS-T score of at least about 20%. In the current study, this means an improvement of at least 13 points.

## COc1cc(C(C)=O)ccc1OCCCN1CCC(c2noc3cc(F)ccc23)CC1 [iloperidone, 1-[4-[3-[4-(6-fluoro-1,2-benzisoxazol-3-yl)-1-piperidinyl]propoxy]-3-methoxyphenyl]ethanone]
SNP_A-1819750 (CREG1) genotype A_A
  mean of change in PANSS-T: −18.13
SNP_A-1819750 (CREG1) genotype A_B*
  mean of change in PANSS-T: −10.74
SNP_A-1819750 (CREG1) genotype B_B
  mean of change in PANSS-T: −16.05
SNP_A-1819750 (CREG1) genotype nonAB**
  mean of change in PANSS-T: −16.72
SNP_A-1860353 (RAP1B) genotype A_A**
  mean of change in PANSS-T: −37.40
SNP_A-1860353 (RAP1B) genotype A_B
  mean of change in PANSS-T: −11.79
SNP_A-1860353 (RAP1B) genotype B_B
  mean of change in PANSS-T: −11.84
SNP_A-1860353 (RAP1B) genotype nonAA*
  mean of change in PANSS-T: −11.83
SNP_A-1934663 genotype A_A
  mean of change in PANSS-T: −18.67
SNP_A-1934663 genotype A_B
  mean of change in PANSS-T: −18.34
SNP_A-1934663 genotype B_B*
  mean of change in PANSS-T: −8.39
SNP_A-1934663 genotype nonBB**
  mean of change in PANSS-T: −18.40
SNP_A-1973093 (KIAA0040) genotype A_A
  mean of change in PANSS-T: −14.99
SNP_A-1973093 (KIAA0040) genotype A_B*
  mean of change in PANSS-T: −6.21
SNP_A-1973093 (KIAA0040) genotype B_B
  mean of change in PANSS-T: −16.73
SNP_A-1973093 (KIAA0040) genotype nonAB**
  mean of change in PANSS-T: −16.39
SNP_A-1975928 (SLC2A9) genotype A_A
  mean of change in PANSS-T: −13.09
SNP_A-1975928 (SLC2A9) genotype A_B
  mean of change in PANSS-T: −13.17
SNP_A-1975928 (SLC2A9) genotype B_B*
  mean of change in PANSS-T: 16.38
SNP_A-1975928 (SLC2A9) genotype nonBB**
  mean of change in PANSS-T: −13.11
SNP_A-1987915 (GPR126) genotype A_A
  mean of change in PANSS-T: −9.87
SNP_A-1987915 (GPR126) genotype A_B
  mean of change in PANSS-T: −9.61
SNP_A-1987915 (GPR126) genotype B_B**
  mean of change in PANSS-T: −17.29
SNP_A-1987915 (GPR126) genotype nonBB*
  mean of change in PANSS-T: −9.67
SNP_A-2007721 (LOC58486) genotype A_A
  mean of change in PANSS-T: −4.55
SNP_A-2007721 (LOC58486) genotype A_B**
  mean of change in PANSS-T: −22.64
SNP_A-2007721 (LOC58486) genotype B_B
  mean of change in PANSS-T: −9.55
SNP_A-2007721 (LOC58486) genotype nonAB*
  mean of change in PANSS-T: −9.52
SNP_A-2044214 (HNT) genotype A_A
  mean of change in PANSS-T: −15.71
SNP_A-2044214 (HNT) genotype A_B*
  mean of change in PANSS-T: −7.43
SNP_A-2044214 (HNT) genotype B_B
  mean of change in PANSS-T: −14.43
SNP_A-2044214 (HNT) genotype nonAB**
  mean of change in PANSS-T: −15.26
SNP_A-2048427 (NPAS3) genotype A_A
  mean of change in PANSS-T: −19.94
SNP_A-2048427 (NPAS3) genotype A_B
  mean of change in PANSS-T: −20.15
SNP_A-2048427 (NPAS3) genotype B_B*
  mean of change in PANSS-T: −9.20
SNP_A-2048427 (NPAS3) genotype nonBB**
  mean of change in PANSS-T: −20.12
SNP_A-2070454 (NKX2-5) genotype A_A
  mean of change in PANSS-T: −9.88
SNP_A-2070454 (NKX2-5) genotype A_B
  mean of change in PANSS-T: −10.39
SNP_A-2070454 (NKX2-5) genotype B_B**
  mean of change in PANSS-T: −18.31
SNP_A-2070454 (NKX2-5) genotype nonBB*
  mean of change in PANSS-T: −10.23
SNP_A-2076797 (NUDT9P1) genotype A_A
  mean of change in PANSS-T: −7.14
SNP_A-2076797 (NUDT9P1) genotype A_B**
  mean of change in PANSS-T: −18.73
SNP_A-2076797 (NUDT9P1) genotype B_B
  mean of change in PANSS-T: −6.04
SNP_A-2076797 (NUDT9P1) genotype nonAB*
  mean of change in PANSS-T: −6.61
SNP_A-2103099 (HTR1A) genotype A_A
  mean of change in PANSS-T: −17.43
SNP_A-2103099 (HTR1A) genotype A_B*
  mean of change in PANSS-T: −8.31
SNP_A-2103099 (HTR1A) genotype B_B
  mean of change in PANSS-T: −16.12
SNP_A-2103099 (HTR1A) genotype nonAB**
  mean of change in PANSS-T: −16.60
SNP_A-2120958 genotype A_A
  mean of change in PANSS-T: −13.95
SNP_A-2120958 genotype A_B
  mean of change in PANSS-T: −13.71
SNP_A-2120958 genotype B_B*
  mean of change in PANSS-T: 2.48
SNP_A-2120958 genotype nonBB**
  mean of change in PANSS-T: −13.85
SNP_A-2170121 (C6) genotype A_A
  mean of change in PANSS-T: −8.94
SNP_A-2170121 (C6) genotype A_B**
  mean of change in PANSS-T: −21.93
SNP_A-2170121 (C6) genotype B_B
  mean of change in PANSS-T: −11.50
SNP_A-2170121 (C6) genotype nonAB*
  mean of change in PANSS-T: −9.17
SNP_A-2274533 (LZTS1) genotype A_A**
  mean of change in PANSS-T: −15.95
SNP_A-2274533 (LZTS1) genotype A_B
  mean of change in PANSS-T: −6.04
SNP_A-2274533 (LZTS1) genotype B_B
  mean of change in PANSS-T: −6.21
SNP_A-2274533 (LZTS1) genotype nonAA*
  mean of change in PANSS-T: −6.08
SNP_A-2283283 (XKR4) genotype A_A*
  mean of change in PANSS-T: −3.30
SNP_A-2283283 (XKR4) genotype A_B
  mean of change in PANSS-T: −14.57
SNP_A-2283283 (XKR4) genotype B_B
  mean of change in PANSS-T: −15.66
SNP_A-2283283 (XKR4) genotype nonAA**
  mean of change in PANSS-T: −15.02
SNP_A-2284243 (GRIA4) genotype A_A
  mean of change in PANSS-T: −15.30
SNP_A-2284243 (GRIA4) genotype A_B
  mean of change in PANSS-T: −15.17
SNP_A-2284243 (GRIA4) genotype B_B*
  mean of change in PANSS-T: −3.30
SNP_A-2284243 (GRIA4) genotype nonBB**
  mean of change in PANSS-T: −15.22
SNP_A-4204396 (CDH13) genotype A_A
  mean of change in PANSS-T: −13.72
SNP_A-4204396 (CDH13) genotype A_B
  mean of change in PANSS-T: −14.04
SNP_A-4204396 (CDH13) genotype B_B*
  mean of change in PANSS-T: 4.89
SNP_A-4204396 (CDH13) genotype nonBB**
  mean of change in PANSS-T: −13.84
SNP_A-4212785 (PPP1R3B) genotype A_A*
  mean of change in PANSS-T: 25.90
SNP_A-4212785 (PPP1R3B) genotype A_B
  mean of change in PANSS-T: −13.66
SNP_A-4212785 (PPP1R3B) genotype B_B
  mean of change in PANSS-T: −13.56
SNP_A-4212785 (PPP1R3B) genotype nonAA**
  mean of change in PANSS-T: −13.60
SNP_A-4230979 (ASB3) genotype A_A
  mean of change in PANSS-T: −6.70
SNP_A-4230979 (ASB3) genotype A_B
  mean of change in PANSS-T: −8.77
SNP_A-4230979 (ASB3) genotype B_B**
  mean of change in PANSS-T: −18.82
SNP_A-4230979 (ASB3) genotype nonBB*
  mean of change in PANSS-T: −8.34
SNP_A-4256833 (MLCK) genotype A_A
  mean of change in PANSS-T: −15.19
SNP_A-4256833 (MLCK) genotype A_B*
  mean of change in PANSS-T: −6.20
SNP_A-4256833 (MLCK) genotype B_B
  mean of change in PANSS-T: −15.15
SNP_A-4256833 (MLCK) genotype nonAB**
  mean of change in PANSS-T: −15.15
SNP_A-4258279 (RRM1) genotype A_A
  mean of change in PANSS-T: −13.42
SNP_A-4258279 (RRM1) genotype A_B*
  mean of change in PANSS-T: −2.55
SNP_A-4258279 (RRM1) genotype B_B
  mean of change in PANSS-T: −14.72
SNP_A-4258279 (RRM1) genotype nonAB**
  mean of change in PANSS-T: −14.70

— US9080214B2, “Genetic markers for efficacy of iloperidone in the treatment of psychotic symptoms” (Vanda Pharmaceuticals, Inc., priority 2007, dated 2015)
